Test results reported in patent publication US10470459B2, “Antimicrobial preparations, methods for preparing the same and uses thereof to combat microorganisms” (IPABC LTD, priority 2014, dated 2019).
Where two headings read alike, the source gives them in different places.

Legend:
[1] = H2O, 20° C., cited from earlier work
[2] = Critical micelle concentration (CMC); type: physicochemical; conditions: H2O, 20° C.; approx. conversion of the mM value
Source text: The term “critical micelle concentration” refers to the concentration of a surfactant in a polar solvent above which the surfactant molecules will spontaneously arrange as a micelle. In accordance with the invention, this value may be expressed in any convenient units of concentration, with the exception that when CMC values are undergoing comparison, the value is expressed as a molar concentration (i.e. in units of M, mM, μM, etc., as appropriate). In the present context a micelle is considered to be a colloid arrangement of surfactant molecules in a polar solvent in which the hydrophilic head groups are oriented towards the polar solvent in a substantially spherical shape and the hydrophobic tail groups are sequestered to the interior of the sphere. In the present context a reference to the CMC of a surfactant is a reference to the CMC of the surfactant in the conditions of the aqueous liquid composition of the invention (including physical conditions such as temperature), unless otherwise indicated. For convenience, this may be taken as the CMC of the surfactant in isolation in pure water at 20° C. CMC values may be calculated by any convenient means, preferably by one of the methods described in Mukerjee P., et. al, Critical Micelle Concentrations of Aqueous Surfactant Systems, United States Department of Commerce, Nat. Stnd. Ref. Data Ser., Nat. Bur. Stand., February 1971 (U.S.).

[3] = Turbidity of diluted mixtures, OD at 570 nm; type: physicochemical; conditions: diluted from stock of 100000 ppm AG6210 and/or 25000 ppm ε-polylysine, analysed immediately
Source text: In general the experiments described in Examples 2 to 17 comprise two stages. First stage is the preparation of a concentrated solution of the surfactant(s) and crystal substrate in drinking water. This stage may involve the mixing of a pre-prepared stock solution(s) of the surfactant in drinking water and a pre-prepared stock solution of the substrate in drinking water. The exact procedure used is set out in each Example. The second stage is the dilution of aliquots of the stock solution with single aliquots of drinking water in glass vessels to result in diluted mixtures with varying (theoretical) concentrations of surfactant(s) and substrate as recited in the Tables of each Example. The diluted mixtures were incubated for the time and at the temperature recited in each Example before the amount of particulate matter in the mixture was assessed. This assessment was by spectrophotometer set to measure OD at a wavelength of 570 nm in Example 2 and, for Examples 3 to 17, by naked eye upon agitation of the vessel and illumination by electric light. […]
Test mixtures (100 ml) were prepared by pipetting appropriate amounts of the concentrated solution into glass flasks and adjusting the volume to 100 ml with drinking water. Mixtures were analysed immediately by measuring OD at 570 nm. […]

E. coli = assay: Antimicrobial efficacy, CFU count after 30 min contact; type: cell-based; conditions: ε-polylysine 250 ppm, AG 6210 0
Description: 100 μl of an E. coli suspension (˜1.5×10^8 CFUs) was added to 900 μl of a freshly prepared dilute ε-polylysine/AG6210 mixture of the invention (prepared as described above) and incubated for 30 min at room temperature. Reaction was stopped by adding 9 ml of neutraliser. Mixture was then diluted 1:10 and 1:100 and 100 μl of the neat mixture and each dilution was applied to agar plates. Plates were incubated for 48 hrs at 37° C. and CFUs counted.
The antimicrobial efficacy of the following dilute ε-polylysine/AG6210 mixtures, prepared in accordance with the invention, was assessed as described above.

| Compound | CMC [1] | other results |
| --- | --- | --- |
| CCCCCCCCO[C@@H]1O[C@H](CO)[C@@H](O[C@H]2O[C@H](CO)[C@@H](O)[C@H](O)[C@H]2O)[C@H](O)[C@H]1O [n-octyl-β-D-maltopyranoside] | CMC (H2O, 20° C.) of n-octyl-β-D-maltopyranoside: 23 mM |  |
| CCCCCCCCCCO[C@@H]1O[C@H](CO)[C@@H](O[C@H]2O[C@H](CO)[C@@H](O)[C@H](O)[C@H]2O)[C@H](O)[C@H]1O [n-decyl-β-D-maltopyranoside] | CMC (H2O, 20° C.) of n-decyl-β-D-maltopyranoside: 1.6 mM |  |
| CCCCCCCCO[C@@H]1O[C@H](CO)[C@@H](O)[C@H](O)[C@H]1O [n-octyl-β-D-glucopyranoside] |  | CMC [2]: ~2800 ppm |
| CCCCCCCS[C@@H]1O[C@H](CO)[C@@H](O)[C@H](O)[C@H]1O [n-heptyl-β-D-thioglucoside] | CMC (H2O, 20° C.) of n-heptyl-β-D-thioglucoside: 29 mM |  |
| CCCCCCCCC(=O)N(C)C[C@H](O)[C@@H](O)[C@H](O)[C@H](O)CO [n-nonanoyl-N-methylglucamine] | CMC (H2O, 20° C.) of n-nonanoyl-N-methylglucamine: 19-25 mM | CMC ([1]; listed as N-nonanoyl-N-methylglucamine): CMC (H2O, 20° C.) of N-nonanoyl-N-methylglucamine: 19-25 mM |
| alkyl-dimethylbenzyl ammonium chloride | 0.7 mM |  |
| CCCCCCCCCC[N+](C)(C)CCCCCCCCCC.[Cl-] [di-n-decyldimethyl ammonium chloride] | 1.5 mM |  |
| ε-polylysine |  | Turbidity upon dilution (OD at 570 nm) [3]: do not show turbidity; CFUs in each dilution of E. coli culture (E. coli; dilution 1:1): 100 CFUs; CFUs in each dilution of E. coli culture (E. coli; dilution 1:10): 40 CFUs; CFUs in each dilution of E. coli culture (E. coli; dilution 1:100): 25 CFUs |
